Experimental data from patent US9629816B2, “Small molecule therapeutic compounds targeting thioesterase deficiency disorders and methods of using the same” (The United States of America, as represented by the …, priority 2011, dated 2017).

Columns and labels:
Format in all cases: in vivo, mouse
PPT1-KO mice [1] = assay: TEM analysis of GRODs in brain cells of PPT1-KO mice; conditions: PPT1-KO mice treated from 3 to 6 months of age, 1 mM in drinking water (FIG. 12)
Method: All animal experiments were performed according to the institutional guidelines after an animal protocol was approved by the Animal Care and Use Committee of the National Institute of Child Health and Development, National Institutes of Health. PPT1-KO mice (a gift from Dr. S. L. Hofmann, University of Texas Southwestern Medical Center at Dallas, Dallas, Tex., USA) were generated by targeted disruption of the last exon in the PPT1 gene in embryonic stem (ES) cells. These mice were subsequently backcrossed for 10 generations with wild type C57BL/6 mice in order to obtain congenic C57 background and a breeding pair was provided by Dr. Mark Sands to start the inventors' colony. Animals were housed and maintained in a pathogen-free facility. Three-month old PPT-KO mice were given NtBuHA in their drinking water (1 mM NtBuHA and 1 mM NaCl).
Cortical tissue sections were prepared from wild-type mice and untreated- as well as NtBuHA-treated PPT1-KO littermates. Cortical tissues (approximately 1 mm^3) were dissected from those animals, fixed in 2.5% glutaradlehyde in 0.1M sodium cacodylate buffer, pH 7.4 followed by three washing in 0.1 M sodium cacodylate buffer at room temperature. […]

PPT1-KO mice [2] = assay: TUNEL assay of cortical tissue sections of PPT1-KO mice; conditions: cortical tissue vs untreated PPT1-KO mice (FIG. 16)
Method: It has been reported that postmortem brain tissues from INCL patients as well as those from PPT1-KO mice manifest high levels of oxidative stress, which induces neuronal apoptosis contributing to neuropathology. […] Accordingly, a terminal deoxynucleotidyl transferase dUTP nick end labeling (TUNEL) assay was performed using cortical tissue sections from wild-type, untreated PPT1-KO and NtBuHA-treated PPT1-KO mice to determine the level of apoptosis. […] Since elevated levels of apoptosis in the brain of PPT1-KO mice and INCL patients mediate progressive decline in number of cortical neurons, the inventors also sought to further confirm whether decreased apoptosis in NtBuHA-treated PPT1-KO mice prevented neuronal loss. Accordingly, an immunohistochemical analyses of cortical tissue sections from wild-type, untreated-PPT1-KO, and NtBuHA-treated PPT1-KO mice was performed using antibodies against a neuronal marker, NeuN. […] Quantitative analysis of the NeuN-positive cells in brain tissues from wild-type, untreated and NtBuHA-treated PPT1-KO mice (FIG. 18D) confirmed the visual assessment.

PPT1-KO mice [3] = assay: Western blot of caspase-9 and cleaved PARP-1 in cortical tissue homogenates of PPT1-KO mice; conditions: cortical tissue homogenates (FIG. 17)
Method: Western blot analysis was performed as using standard methodology. Briefly 30 μg of protein was resolved in 4-12% Bis tris gel (Invitrogen) and electro-transferred in PVDF membrane. The membranes were blocked with 5% non fat dried milk for 1 hour at room temperature and were then probed overnight with primary antibody at 4 C. After washing the blots were incubated with horseradish peroxidase conjugated secondary antibody (Santacruz Biotechnology) for 1 hour at room temperature and developed using enhanced chemiluminescences detection reagents (Pierce). Primary antibodies used in this study were caspase-3, caspase-9 (cell signaling) SOD2, catalase, β-Actin (US Biologicals).
(§1) It has been reported that postmortem brain tissues from INCL patients as well as those from PPT1-KO mice manifest high levels of oxidative stress, which induces neuronal apoptosis contributing to neuropathology. […] Accordingly, a terminal deoxynucleotidyl transferase dUTP nick end labeling (TUNEL) assay was performed using cortical tissue sections from wild-type, untreated PPT1-KO and NtBuHA-treated PPT1-KO mice to determine the level of apoptosis. […] Quantitative analysis of the NeuN-positive cells in brain tissues from wild-type, untreated and NtBuHA-treated PPT1-KO mice (FIG. 18D) confirmed the visual assessment.

PPT1-KO mice [4] = assay: NeuN immunohistochemistry of cortical tissue sections of PPT1-KO mice; conditions: brain sections vs untreated PPT1-KO mice (FIG. 18)
Method: The NtBuHA treated and untreated mouse brain tissues were fixed in 3.7% paraformaldehyde, embedded in paraffin and processed for histological analyses. Briefly, after being treated with xylene and then successively with different concentrations of ethanol in phosphate buffered saline (PBS) (100% to 0%), tissue sections were blocked with 5% BSA in PBS. Sections were then probed overnight with anti-synaptophysin (Abcam) and anti-GFAP followed by incubation with alexa fluor 594 conjugated anti-rabbit and anti-mouse secondary antibodies (Invitrogen). Sections were mounted with DAPI containing mounting medium and imaged using Zeiss LSM 510 Inverted Meta confocal microscope (Carl Zeiss).
as §1

PPT1-KO mice [5] = assay: Rotarod Performance Test, motor coordination of PPT1-KO mice; conditions: 6-month and 8-month old PPT1-KO mice (FIG. 19A-D)
Method: Motor coordination of the untreated- and NtBuHA-treated PPT1-KO mice was assessed using Rotarod) (UGO Basile, Italy) at three different speeds (4, 8 and 12 rpm). In all these speeds the direction of rotation was reversed every 15 seconds. Animals were trained twice at all speed settings for 1 minute each for 3 days. Animals were then given a rest for 1 minute between two trials. Rotarod experiments were performed for at least 60 seconds on day 4 and the amount of time a mouse was on the rotarod before falling from the rotating rod was recorded.
Since NtBuHA functionally mimics PPT1, the inventors tested 6-month and 8-month old wild-type, untreated- and NtBuHA-treated PPT1-KO mice for motor coordination and exploratory behavior. The Rotarod Performance Test, which measures parameters such as riding time (seconds) and/or endurance was used to measure motor coordination. The open field test was utilized to evaluate the exploratory behavior.

PPT1-KO mice [6] = assay: Toxicity of dietary NtBuHA in Ppt1-KO mice
Source text: Thus, toxicity of HA precludes its clinical use. However, HA-derivatives may be non-toxic. […] (See Table 1 for a listing of these HA-derivatives). […] (See Table 3).

CC(C)(C)NO [NtBuHA, N-(tert-Butyl)hydroxylamine]
GRODs in brain cells (PPT1-KO mice [1]): markedly reduced number of GRODs | TUNEL-positive apoptotic cells (PPT1-KO mice [2]): appreciably lower levels of TUNEL-positive apoptotic cells | caspase-9 and cleaved PARP-1 level (PPT1-KO mice [3]): marked reduction in caspase-9 and cleaved PARP-1 level | NeuN-positive cells (PPT1-KO mice [4]): modestly higher level of NeuN-positive cells | motor function (Rotarod) (PPT1-KO mice [5]): retained near normal motor function | toxicity in Ppt1-KO mice (PPT1-KO mice [6]): showed no toxicity
